For experiment [1], the target named is Histone-lysine N-methyltransferase EZH2 (Homo sapiens, UniProt O75530+Q09028+Q15022+Q15910). Put plainly: Inhibition of N-terminally FLAG-tagged wild type EZH2 in EZH2/SUZ12/EED/RbAp48 complex (unknown origin) expressed in baculovirus infected in SF9 cells assessed as inhibition of methylation of nucleosomes at H3K27 by scintillation counting in presence of [3H]SAM.

For experiment [2], the target named is Histone-lysine N-methyltransferase EZH2 (Homo sapiens, UniProt O75530+Q09028+Q15022+Q15910, Y641N). Put plainly: Inhibition of N-terminally FLAG-tagged EZH2 Y641N mutant in EZH2/SUZ12/EED/RbAp48 complex (unknown origin) expressed in baculovirus infected in SF9 cells assessed as inhibition of methylation of nucleosomes at H3K27 by scintillation counting in presence of [3H]SAM.
Chain of Histone-lysine N-methyltransferase EZH2 (Homo sapiens, UniProt O75530+Q09028+Q15022+Q15910, Y641N) (Q15910 whole entry Y641N, one chain of several): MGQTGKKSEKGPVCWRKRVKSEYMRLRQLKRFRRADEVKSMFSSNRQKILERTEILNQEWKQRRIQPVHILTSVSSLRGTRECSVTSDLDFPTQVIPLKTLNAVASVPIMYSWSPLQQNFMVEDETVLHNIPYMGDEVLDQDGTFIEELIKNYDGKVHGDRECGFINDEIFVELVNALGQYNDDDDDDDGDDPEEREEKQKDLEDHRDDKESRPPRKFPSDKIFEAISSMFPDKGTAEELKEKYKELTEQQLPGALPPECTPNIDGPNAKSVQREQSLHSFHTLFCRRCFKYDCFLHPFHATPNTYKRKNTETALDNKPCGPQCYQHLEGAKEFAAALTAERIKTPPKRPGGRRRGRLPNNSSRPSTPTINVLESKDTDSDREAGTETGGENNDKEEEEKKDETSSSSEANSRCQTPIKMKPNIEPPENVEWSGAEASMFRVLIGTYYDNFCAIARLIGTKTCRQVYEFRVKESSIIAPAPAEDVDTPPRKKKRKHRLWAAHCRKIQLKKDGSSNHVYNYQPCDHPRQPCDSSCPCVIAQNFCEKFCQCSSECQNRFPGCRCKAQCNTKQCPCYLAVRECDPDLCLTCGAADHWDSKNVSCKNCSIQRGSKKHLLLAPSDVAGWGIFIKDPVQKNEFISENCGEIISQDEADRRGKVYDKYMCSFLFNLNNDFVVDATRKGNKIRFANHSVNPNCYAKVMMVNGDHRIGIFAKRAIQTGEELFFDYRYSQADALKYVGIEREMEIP

Experiment [3] addresses Histone-lysine N-methyltransferase EZH2 (Homo sapiens) (UniProt Q15910). Briefly: Inhibition of EZH2 (unknown origin) at 100 uM by cell-based assay.
In experiment [4] the target is T1, Histone-lysine N-methyltransferase EHMT1 (Homo sapiens, UniProt Q9H9B1).
T1 sequence (Q9H9B1 whole entry): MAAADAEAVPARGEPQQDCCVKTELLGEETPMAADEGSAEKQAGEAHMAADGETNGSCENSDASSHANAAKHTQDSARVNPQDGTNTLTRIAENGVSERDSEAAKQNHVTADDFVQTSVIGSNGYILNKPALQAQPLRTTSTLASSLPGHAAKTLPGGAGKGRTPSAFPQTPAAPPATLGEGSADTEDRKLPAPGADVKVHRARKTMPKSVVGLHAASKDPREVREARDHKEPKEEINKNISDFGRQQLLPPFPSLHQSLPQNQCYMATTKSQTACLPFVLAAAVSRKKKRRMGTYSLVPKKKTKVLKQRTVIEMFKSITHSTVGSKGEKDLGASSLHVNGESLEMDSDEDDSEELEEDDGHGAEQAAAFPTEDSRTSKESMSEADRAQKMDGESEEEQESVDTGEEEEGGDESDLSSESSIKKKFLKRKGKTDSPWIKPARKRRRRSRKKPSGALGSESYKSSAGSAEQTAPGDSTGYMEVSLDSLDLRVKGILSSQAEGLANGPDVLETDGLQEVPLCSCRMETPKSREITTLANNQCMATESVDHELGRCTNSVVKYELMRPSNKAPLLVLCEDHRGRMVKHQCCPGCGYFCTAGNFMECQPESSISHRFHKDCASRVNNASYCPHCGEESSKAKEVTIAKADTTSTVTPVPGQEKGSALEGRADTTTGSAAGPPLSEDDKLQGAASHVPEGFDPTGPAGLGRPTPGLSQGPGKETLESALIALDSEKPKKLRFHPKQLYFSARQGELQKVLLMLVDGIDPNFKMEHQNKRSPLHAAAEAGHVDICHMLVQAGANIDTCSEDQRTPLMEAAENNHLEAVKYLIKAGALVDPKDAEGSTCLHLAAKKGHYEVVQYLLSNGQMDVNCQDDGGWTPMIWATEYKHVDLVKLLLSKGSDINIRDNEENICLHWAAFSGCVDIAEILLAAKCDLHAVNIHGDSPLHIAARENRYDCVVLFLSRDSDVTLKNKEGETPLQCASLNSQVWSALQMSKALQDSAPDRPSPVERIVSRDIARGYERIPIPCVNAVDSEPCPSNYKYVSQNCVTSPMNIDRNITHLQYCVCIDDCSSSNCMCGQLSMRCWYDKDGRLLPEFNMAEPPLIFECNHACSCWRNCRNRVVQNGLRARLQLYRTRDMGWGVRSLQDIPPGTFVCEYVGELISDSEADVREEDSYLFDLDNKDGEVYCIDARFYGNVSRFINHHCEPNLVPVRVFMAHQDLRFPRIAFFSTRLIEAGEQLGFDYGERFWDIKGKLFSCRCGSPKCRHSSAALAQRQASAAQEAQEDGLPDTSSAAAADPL
Briefly: Inhibition of EHMT1 (unknown origin) by HMT assay.

For experiment [5], the target named is Histone-lysine N-methyltransferase 2A (Homo sapiens, UniProt Q03164). Put plainly: Inhibition of MLL (unknown origin) by HMT assay.
Chain of Histone-lysine N-methyltransferase 2A (Q03164 1-2718 limits assumed): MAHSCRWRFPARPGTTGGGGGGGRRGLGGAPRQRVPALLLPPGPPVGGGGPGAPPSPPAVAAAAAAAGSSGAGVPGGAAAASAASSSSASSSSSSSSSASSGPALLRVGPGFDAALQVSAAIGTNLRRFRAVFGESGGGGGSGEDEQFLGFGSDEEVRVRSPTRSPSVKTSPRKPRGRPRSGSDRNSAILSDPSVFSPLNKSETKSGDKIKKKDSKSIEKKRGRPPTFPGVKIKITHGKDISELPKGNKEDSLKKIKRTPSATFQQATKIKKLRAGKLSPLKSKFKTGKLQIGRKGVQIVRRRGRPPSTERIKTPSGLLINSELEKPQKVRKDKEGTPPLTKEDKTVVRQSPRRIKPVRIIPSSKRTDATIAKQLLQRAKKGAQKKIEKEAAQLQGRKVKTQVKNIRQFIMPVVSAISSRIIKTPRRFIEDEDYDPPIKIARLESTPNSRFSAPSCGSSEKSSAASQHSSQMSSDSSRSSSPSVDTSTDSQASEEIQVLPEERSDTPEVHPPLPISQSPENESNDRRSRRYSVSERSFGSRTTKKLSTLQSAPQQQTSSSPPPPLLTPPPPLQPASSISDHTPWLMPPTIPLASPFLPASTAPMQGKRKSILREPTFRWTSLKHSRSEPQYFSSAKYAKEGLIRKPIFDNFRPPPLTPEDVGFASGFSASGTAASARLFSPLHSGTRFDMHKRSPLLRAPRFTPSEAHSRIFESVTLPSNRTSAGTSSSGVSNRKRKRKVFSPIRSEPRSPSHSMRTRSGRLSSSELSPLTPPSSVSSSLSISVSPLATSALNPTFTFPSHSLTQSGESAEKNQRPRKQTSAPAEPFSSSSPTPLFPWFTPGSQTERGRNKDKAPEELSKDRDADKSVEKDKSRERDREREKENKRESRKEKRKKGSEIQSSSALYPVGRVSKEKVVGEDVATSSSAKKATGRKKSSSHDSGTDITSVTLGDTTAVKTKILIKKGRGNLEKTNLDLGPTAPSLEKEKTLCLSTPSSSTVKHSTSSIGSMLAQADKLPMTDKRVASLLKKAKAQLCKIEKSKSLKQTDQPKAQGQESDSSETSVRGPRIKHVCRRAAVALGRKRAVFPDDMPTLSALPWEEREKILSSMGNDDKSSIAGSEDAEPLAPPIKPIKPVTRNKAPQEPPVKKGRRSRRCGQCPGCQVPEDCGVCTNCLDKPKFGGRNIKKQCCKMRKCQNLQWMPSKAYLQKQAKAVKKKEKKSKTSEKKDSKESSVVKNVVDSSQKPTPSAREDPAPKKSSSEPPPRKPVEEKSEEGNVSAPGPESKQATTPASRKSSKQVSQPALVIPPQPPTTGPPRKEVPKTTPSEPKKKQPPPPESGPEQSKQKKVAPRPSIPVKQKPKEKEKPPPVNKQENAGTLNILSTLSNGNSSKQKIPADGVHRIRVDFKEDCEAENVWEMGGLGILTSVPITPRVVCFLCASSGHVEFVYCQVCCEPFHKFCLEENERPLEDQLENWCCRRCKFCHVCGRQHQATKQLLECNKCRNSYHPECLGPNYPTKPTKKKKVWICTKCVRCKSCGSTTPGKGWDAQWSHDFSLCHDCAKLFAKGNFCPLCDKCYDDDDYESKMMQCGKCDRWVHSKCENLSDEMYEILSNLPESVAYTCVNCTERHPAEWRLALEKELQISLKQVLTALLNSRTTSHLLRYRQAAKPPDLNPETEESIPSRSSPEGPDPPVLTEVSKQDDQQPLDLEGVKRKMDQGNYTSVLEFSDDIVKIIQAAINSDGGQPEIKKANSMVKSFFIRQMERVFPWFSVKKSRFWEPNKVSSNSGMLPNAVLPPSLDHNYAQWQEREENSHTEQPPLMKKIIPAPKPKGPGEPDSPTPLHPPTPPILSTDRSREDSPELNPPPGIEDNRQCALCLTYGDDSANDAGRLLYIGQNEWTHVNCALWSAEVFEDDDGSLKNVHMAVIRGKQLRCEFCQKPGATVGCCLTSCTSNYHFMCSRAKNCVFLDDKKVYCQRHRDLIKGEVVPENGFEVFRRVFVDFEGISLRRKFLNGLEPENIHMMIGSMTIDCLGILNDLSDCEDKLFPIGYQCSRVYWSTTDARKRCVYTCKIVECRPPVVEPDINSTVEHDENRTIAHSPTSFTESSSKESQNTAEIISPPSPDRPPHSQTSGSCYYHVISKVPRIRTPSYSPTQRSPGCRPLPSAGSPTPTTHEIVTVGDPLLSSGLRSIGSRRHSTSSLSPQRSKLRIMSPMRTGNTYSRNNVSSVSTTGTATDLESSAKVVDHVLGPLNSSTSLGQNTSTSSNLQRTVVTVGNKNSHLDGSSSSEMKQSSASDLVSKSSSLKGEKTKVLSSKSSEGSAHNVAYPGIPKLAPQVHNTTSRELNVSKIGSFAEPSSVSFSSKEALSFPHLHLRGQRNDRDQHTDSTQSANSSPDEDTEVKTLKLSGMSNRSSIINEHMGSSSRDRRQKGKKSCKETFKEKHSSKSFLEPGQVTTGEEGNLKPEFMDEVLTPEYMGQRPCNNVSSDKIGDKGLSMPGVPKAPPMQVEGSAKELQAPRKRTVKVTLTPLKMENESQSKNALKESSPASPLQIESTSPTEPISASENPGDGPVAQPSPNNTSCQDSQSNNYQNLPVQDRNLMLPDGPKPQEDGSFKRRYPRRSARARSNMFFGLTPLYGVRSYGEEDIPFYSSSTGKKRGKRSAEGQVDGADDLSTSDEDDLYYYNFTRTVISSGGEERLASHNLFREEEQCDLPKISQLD
Chain of Histone-lysine N-methyltransferase 2A (Q03164 2719-3969 limits assumed): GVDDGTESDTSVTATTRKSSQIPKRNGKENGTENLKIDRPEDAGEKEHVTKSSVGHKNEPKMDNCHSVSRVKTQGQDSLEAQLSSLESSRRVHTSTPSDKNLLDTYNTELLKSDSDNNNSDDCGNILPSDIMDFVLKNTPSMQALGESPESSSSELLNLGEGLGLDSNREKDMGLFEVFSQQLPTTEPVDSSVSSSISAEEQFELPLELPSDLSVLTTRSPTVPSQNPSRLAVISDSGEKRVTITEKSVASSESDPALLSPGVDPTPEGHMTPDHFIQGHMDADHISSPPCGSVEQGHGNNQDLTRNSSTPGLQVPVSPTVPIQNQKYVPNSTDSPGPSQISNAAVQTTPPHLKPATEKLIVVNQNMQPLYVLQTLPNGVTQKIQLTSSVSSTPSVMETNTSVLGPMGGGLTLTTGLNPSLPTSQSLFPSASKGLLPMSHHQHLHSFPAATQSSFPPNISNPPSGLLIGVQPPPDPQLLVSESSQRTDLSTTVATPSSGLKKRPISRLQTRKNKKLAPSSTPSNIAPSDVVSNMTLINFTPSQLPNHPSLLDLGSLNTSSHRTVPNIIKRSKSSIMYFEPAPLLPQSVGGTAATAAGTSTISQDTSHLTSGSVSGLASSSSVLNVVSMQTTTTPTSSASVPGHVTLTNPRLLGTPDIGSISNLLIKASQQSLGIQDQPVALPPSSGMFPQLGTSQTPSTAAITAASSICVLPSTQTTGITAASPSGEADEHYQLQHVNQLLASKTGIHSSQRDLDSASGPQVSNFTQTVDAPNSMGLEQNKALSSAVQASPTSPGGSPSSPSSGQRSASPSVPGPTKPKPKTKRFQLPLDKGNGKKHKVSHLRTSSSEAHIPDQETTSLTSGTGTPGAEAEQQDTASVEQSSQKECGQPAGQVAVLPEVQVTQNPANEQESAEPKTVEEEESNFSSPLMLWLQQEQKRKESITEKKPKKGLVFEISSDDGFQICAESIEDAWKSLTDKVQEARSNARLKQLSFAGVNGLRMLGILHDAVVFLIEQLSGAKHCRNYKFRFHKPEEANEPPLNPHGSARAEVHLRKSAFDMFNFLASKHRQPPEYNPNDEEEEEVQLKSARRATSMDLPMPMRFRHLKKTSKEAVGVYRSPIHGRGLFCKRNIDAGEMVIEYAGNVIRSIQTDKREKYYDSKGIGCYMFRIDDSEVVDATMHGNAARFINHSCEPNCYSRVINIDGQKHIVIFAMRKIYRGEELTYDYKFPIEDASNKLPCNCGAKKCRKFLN
The target in experiment [6] is T2, Histone-lysine N-methyltransferase SETD7 (Homo sapiens, UniProt Q8WTS6).
T2 sequence (Q8WTS6 whole entry): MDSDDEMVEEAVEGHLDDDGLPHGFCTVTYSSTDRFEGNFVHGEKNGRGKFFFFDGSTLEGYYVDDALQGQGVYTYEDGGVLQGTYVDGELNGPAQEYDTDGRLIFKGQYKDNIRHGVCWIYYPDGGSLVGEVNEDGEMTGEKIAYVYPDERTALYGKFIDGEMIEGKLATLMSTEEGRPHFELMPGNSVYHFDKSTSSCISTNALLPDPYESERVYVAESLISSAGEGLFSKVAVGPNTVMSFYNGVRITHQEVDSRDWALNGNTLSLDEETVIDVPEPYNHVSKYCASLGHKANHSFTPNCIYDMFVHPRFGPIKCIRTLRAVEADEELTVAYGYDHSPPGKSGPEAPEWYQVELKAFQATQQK
Put plainly: Inhibition of SETD7 (unknown origin) by HMT assay.

In experiment [7] the target is Histone-lysine N-methyltransferase SETDB1 (Homo sapiens, UniProt Q15047). Briefly: Inhibition of SETDB1 (unknown origin) by HMT assay.
In experiment [8] the target is Histone-lysine N-methyltransferase SUV39H2 (Homo sapiens, UniProt Q9H5I1). Briefly: Inhibition of SUV39H2 (unknown origin) by HMT assay.
Experiment [9] concerns the target Histone-lysine N-methyltransferase KMT5C (Homo sapiens, UniProt Q86Y97). Briefly: Inhibition of SUV420H2 (unknown origin) by HMT assay.
Experiment [10] deals with N-lysine methyltransferase SMYD2 (Homo sapiens, UniProt Q9NRG4). Briefly: Inhibition of SMYD2 (unknown origin) by HMT assay.

Activity calls are given as the source filed them. No cut-off for these calls is given here.

From ChEMBL document CHEMBL3396964, “SAH derived potent and selective EZH2 inhibitors” (Bioorg Med Chem Lett, 2015) come the findings set out here.

Chain of Histone-lysine N-methyltransferase EZH2 (Homo sapiens, UniProt O75530+Q09028+Q15022+Q15910) (Q15910 whole entry, one chain of several): as the sequence (Q15910 whole entry Y641N, one chain of several) above, with N641Y counted along it
Chain of Histone-lysine N-methyltransferase EZH2 (Homo sapiens) (Q15910 whole entry, looked up): as the sequence (Q15910 whole entry Y641N, one chain of several) above, with N641Y counted along it

What is called IC50 is the point on the concentration scale where inhibition reaches its midpoint. For `Nc1ncnc2c1ncn2[C@@H]1O[C@H](CSCC[C@H](N)C(=O)NCc2ccccc2)[C@@H](O)[C@H]1O`, the IC50 in [1] was 120 µM. The same measure, in the same setting: under `Nc1ncnc2c1ncn2[C@@H]1O[C@H](CSCC[C@H](N)C(=O)NCc2cnn(Cc3ccccc3)c2)[C@@H](O)[C@H]1O` stands 24 µM. For `Cn1nc(CNC(=O)[C@@H](N)CCSC[C@H]2O[C@@H](n3cnc4c(N)ncnc43)[C@H](O)[C@@H]2O)cc1C1CCC1`, in experiment [1], the IC50 is 40 µM. Take `Cc1ccccc1-n1cc(CNC(=O)[C@@H](N)CCSC[C@H]2O[C@@H](n3cnc4c(N)ncnc43)[C@H](O)[C@@H]2O)cn1`: the IC50 in experiment [1] came to 28 µM. Regarding `CCCCNC(=O)[C@@H](N)CCSC[C@H]1O[C@@H](n2cnc3c(N)ncnc32)[C@H](O)[C@@H]1O`, in experiment [1], the half-inhibitory concentration (IC50) came out at 19 µM. Turning to `Cc1cc(CNC(=O)[C@@H](N)CCSC[C@H]2O[C@@H](n3cnc4c(N)ncnc43)[C@H](O)[C@@H]2O)n(C)n1`, the 50% inhibitory concentration (IC50) in experiment [1] amounted to 40 µM. Same read-out and setting: under `COCc1cc(CNC(=O)[C@@H](N)CCSC[C@H]2O[C@@H](n3cnc4c(N)ncnc43)[C@H](O)[C@@H]2O)n[nH]1` stands 40 µM. Regarding `CC(C)(C)c1cc(CNC(=O)[C@@H](N)CCSC[C@H]2O[C@@H](n3cnc4c(N)ncnc43)[C@H](O)[C@@H]2O)n[nH]1`, the IC50 in [1] came out at 14 µM; in experiment [2], 3.6 µM.

Regarding `Nc1ncnc2c1ncn2[C@@H]1O[C@H](CSCC[C@H](N)C(=O)NCc2cnn(-c3ccc(F)cc3)c2)[C@@H](O)[C@H]1O`, the figures for the 50% inhibitory concentration (IC50) in experiment [1] and in [2] were 1.4 µM and 0.6 µM, respectively. With `CCCCNC(=O)C(N)CCSC[C@H]1O[C@@H](n2cnc3c(N)ncnc32)[C@H](O)[C@@H]1O` (mixture of isomers), in experiment [1], the concentration for half-maximal inhibition (IC50) stood at 24 µM.

`Nc1ncnc2c1ncn2[C@@H]1O[C@H](CSCC[C@H](N)C(=O)O)[C@@H](O)[C@H]1O` [S-ADENOSYLHOMOCYSTEINE]: the inhibition entry in experiment [3] was “inactive”. Moreover, the 50% inhibitory concentration (IC50) was determined as 0.23 µM in experiment [4]; 2.3 µM in experiment [5]; 30 µM in experiment [6]; 2.2 µM in experiment [7]; 32 µM in [8]; 10 µM in [9]. In experiment [10], this compound registered an IC50 of 0.18 µM. Regarding `Nc1ncnc2c1ncn2[C@@H]1O[C@H](CSCC[C@H](N)C(=O)NCc2cc(C3CCC3)[nH]n2)[C@@H](O)[C@H]1O`, the half-maximal inhibitory concentration (IC50) turned out to be 3 µM in [1] and 1 µM in experiment [2].

In the case of `CCn1cc(CNC(=O)[C@@H](N)CCSC[C@H]2O[C@@H](n3cnc4c(N)ncnc43)[C@H](O)[C@@H]2O)cn1`, in experiment [1], the IC50 is 50 µM. As for `CN1CCn2nc(CNC(=O)[C@@H](N)CCSC[C@H]3O[C@@H](n4cnc5c(N)ncnc54)[C@H](O)[C@@H]3O)cc2C1`, in experiment [1], the IC50 amounted to 50 µM. With `Nc1ncnc2c1ncn2[C@@H]1O[C@H](CSCC[C@H](N)C(=O)NCC2CC2)[C@@H](O)[C@H]1O`, the IC50 in experiment [1] worked out at 60 µM. As for `Nc1ncnc2c1ncn2[C@@H]1O[C@H](CSCC[C@H](N)C(=O)NCc2cc3n(n2)CCN(Cc2ccccc2)C3)[C@@H](O)[C@H]1O`, the IC50 stood at 8 µM in experiment [1] and 2.8 µM in experiment [2].
